# From US9540307B2, “Statins of omega-3 polyunsaturated acids for treating hypercholesterolemia” (Jiva Pharma, Inc., priority 2014, dated 2017)
# Structures can show the parent of a compound that is named as a salt.
# Target: T1, soluble catalytic domain fragment of human HMG reductase (Homo sapiens, UniProt P04035)
# T1 construct: composed of insoluble transmembrane segment and soluble catalytic domain; purchased Sigma-Aldrich CS 1090
# T1 sequence (P04035 340-888 limits assumed): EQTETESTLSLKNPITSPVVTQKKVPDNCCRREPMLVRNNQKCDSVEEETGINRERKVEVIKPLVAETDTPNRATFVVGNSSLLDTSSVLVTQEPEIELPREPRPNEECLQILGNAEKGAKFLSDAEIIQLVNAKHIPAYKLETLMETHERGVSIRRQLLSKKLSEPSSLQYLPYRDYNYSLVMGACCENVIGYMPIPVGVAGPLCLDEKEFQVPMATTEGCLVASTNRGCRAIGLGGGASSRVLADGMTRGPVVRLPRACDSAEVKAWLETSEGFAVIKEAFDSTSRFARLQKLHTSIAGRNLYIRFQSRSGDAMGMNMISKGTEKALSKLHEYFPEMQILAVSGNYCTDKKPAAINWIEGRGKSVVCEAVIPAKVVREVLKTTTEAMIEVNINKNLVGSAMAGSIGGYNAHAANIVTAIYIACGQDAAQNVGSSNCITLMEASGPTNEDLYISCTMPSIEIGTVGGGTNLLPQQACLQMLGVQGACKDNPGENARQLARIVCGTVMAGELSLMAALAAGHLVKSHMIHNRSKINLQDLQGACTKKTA
# Assay: HMG-Co-A reductase inhibition activity, dose-response curves (Sigma-Aldrich assay kit, absorbance at 340 nm)
# Format: biochemical
# Details: for IC50: NADP(H) 250 μM, sub-saturating NADP(H) and coenzyme A, decrease in absorbance at 340 nm, read-out: IC50 μM error; for Hill coefficient: fit of the dose-response curve; for potency relative to pravastatin in inhibiting HMG-CO-A-reductase enzyme: fraction of the potency of pravastatin
# Source text: SigmaAldrich. […] In: catalog number CS 1090. […].com/catalog/product/[…]®ion=HR. […] Holdgate G, Ward […]. […] Louis-Flamberg […], Bryan D L, Leber J, Elliott […] et al. […], Buchanan […]. Crystal structure of the catalytic portion of human HMG-CoA reductase: insights into regulation of activity and catalysis. […] Motulsky H, Christopoulos A. Fitting Models to Biological Data Using Linear and Nonlinear Regression: A Practical Guide to Curve Fitting Oxford University Press, USA; 1 edition 2004. […] Briefly, the dose-response curves have been measured using soluble catalytic domain fragment of human HMG reductase. […] The activity was measured by following decrease in a sample's absorbance at 340 nm caused by enzymatic oxidation of NADP(H) in presence of coenzyme A. […] NADP(H) concentration in the assay mix was adjusted to 250 μM. […] Stock solutions of Na salts of EPA-statin, ALA-statin were prepared in assay buffer in concentration of 50 mM, and subsequently diluted to lower concentrations in the same buffer as needed.
structure (smiles),measurement,value
"CC/C=C\C/C=C\C/C=C\CCCCCCC[C@@H](O)C[C@@H](O)CC(=O)O [ALA-statin, Na salt, Sodium (3R,5R,13Z,16Z,19Z)-3,5-dihydroxydocosa-13,16,19-trienoate]",IC50,25 ± 7 µM
same,Hill coefficient,1.3 ± 0.3
same,potency relative to pravastatin in inhibiting HMG-CO-A-reductase enzyme,about 1/20
"CC/C=C\C/C=C\C/C=C\C/C=C\C/C=C\CCC[C@@H](O)C[C@@H](O)CC(=O)[O-].[Na+] [EPA-statin, Na salt, Sodium (3R,5R,9Z,12Z,15Z,18Z,21Z)-3,5-dihydroxytetracosa-9,12,15,18,21-pentaenoate]",IC50,94 ± 8 µM
same,Hill coefficient,1.6 ± 0.6
same,potency relative to pravastatin in inhibiting HMG-CO-A-reductase enzyme,about 1/100
